Measurements: the supplement of paper PMC10307832

Key:
Test in all cases: relative viability (nuclei count vs DMSO), 5 days (fraction); higher = more cells survive
RO-3306 + Lapatinib = compound: C1=CC2=C(C=CC(=C2)C=C3C(=O)NC(=NCC4=CC=CS4)S3)N=C1 [RO-3306] + CS(=O)(=O)CCNCc1ccc(-c2ccc3ncnc(Nc4ccc(OCc5cccc(F)c5)c(Cl)c4)c3c2)o1 [Lapatinib] (partner 2 µM)
Summary of the method: (§1)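 Lung cancer cell lines in 1536-well plates got either a single drug or a fixed anchor-drug dose together with five library-drug doses (not always all listed) in √10 steps, by pin tool, on the day after seeding. Nuclei were counted after 5 days, and relative viability is the treated-to-vehicle ratio of nuclei counts. Values are medians of duplicate plates.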

[1] = compound: O=S(=O)(c1ccccc1)N(CC(F)(F)F)c1ccc(C(O)(C(F)(F)F)C(F)(F)F)cc1 + CC(=O)Nc1cccc(-n2c(=O)n(C3CC3)c(=O)c3c(Nc4ccc(I)cc4F)n(C)c(=O)c(C)c32)c1 [Trametinib] (partner 0.02 µM)
Summary of the method: as §1

[2] = compound: O=S(=O)(c1ccccc1)N(CC(F)(F)F)c1ccc(C(O)(C(F)(F)F)C(F)(F)F)cc1 + CS(=O)(=O)N1CCN(Cc2cc3nc(-c4cccc5[nH]ncc45)nc(N4CCOCC4)c3s2)CC1 [Pictilisib] (partner 1 µM)
Summary of the method: as §1

[3] = compound: O=S(=O)(c1ccccc1)N(CC(F)(F)F)c1ccc(C(O)(C(F)(F)F)C(F)(F)F)cc1 + C[C@@H](Oc1cc(-c2cnn(C3CCNCC3)c2)cnc1N)c1c(Cl)ccc(F)c1Cl [Crizotinib] (partner 1 µM)
Summary of the method: as §1

[4] = compound: O=S(=O)(c1ccccc1)N(CC(F)(F)F)c1ccc(C(O)(C(F)(F)F)C(F)(F)F)cc1 + Nc1nc2[nH]cc(CCc3ccc(C(=O)N[C@@H](CCC(=O)O)C(=O)O)cc3)c2c(=O)[nH]1 [Pemetrexed] (partner 0.2 µM)
Summary of the method: as §1

[5] = compound: O=S(=O)(c1ccccc1)N(CC(F)(F)F)c1ccc(C(O)(C(F)(F)F)C(F)(F)F)cc1 + O=C(CCCCCCC(=O)Nc1ccccc1)NO [Vorinostat] (partner 1 µM)
Summary of the method: as §1

| Cell Line | relative viability (RO-3306 + Lapatinib; first compound 0.01 µM) | relative viability (RO-3306 + Lapatinib; first compound 0.03162 µM) | relative viability (RO-3306 + Lapatinib; first compound 0.1 µM) | relative viability (RO-3306 + Lapatinib; first compound 0.3162 µM) | relative viability (RO-3306 + Lapatinib; first compound 1 µM) | relative viability ([1]; first compound 0.8 µM) | relative viability ([1]; first compound 2.53 µM) | relative viability ([1]; first compound 8 µM) | relative viability ([2]; first compound 0.8 µM) | relative viability ([2]; first compound 2.53 µM) | relative viability ([2]; first compound 8 µM) | relative viability ([3]; first compound 0.8 µM) | relative viability ([3]; first compound 2.53 µM) | relative viability ([3]; first compound 8 µM) | relative viability ([4]; first compound 0.8 µM) | relative viability ([4]; first compound 2.53 µM) | relative viability ([4]; first compound 8 µM) | relative viability ([5]; first compound 0.8 µM) | relative viability ([5]; first compound 2.53 µM) | relative viability ([5]; first compound 8 µM) |
| --- | --- | --- | --- | --- | --- | --- | --- | --- | --- | --- | --- | --- | --- | --- | --- | --- | --- | --- | --- | --- |
| NCI-H2347 | 0.914 | 0.932 | 0.969 | 0.897 | 0.91 | 0.304 | 0.277 | 0.292 | 0.516 | 0.597 | 0.81 | 0.873 | 0.658 | 0.751 | 0.47 | 0.445 | 0.395 | 0.695 | 0.52 | 0.548 |
| NCI-H322M | 0.576 | 0.595 | 0.575 | 0.586 | 0.561 | 0.497 | 0.506 | 0.557 | 0.551 | 0.529 | 0.541 | 0.981 | 0.835 | 0.743 | 0.603 | 0.62 | 0.595 | 0.883 | 0.842 | 0.869 |
| NCI-H596 | 0.892 | 0.83 | 1.08 | 1.07 | 1.17 | 0.746 | 0.794 | 0.724 | 0.353 | 0.342 | 0.335 | 0.921 | 0.947 | 0.926 | 0.549 | 0.528 | 0.562 | 0.583 | 0.559 | 0.6 |
| NCI-H647 | 1.45 | 0.881 | 0.974 | 1.32 | 0.783 | 0.587 | 0.379 | 0.352 | 0.323 | 0.345 | 0.372 | 1.52 | 1.23 | 0.906 | 0.0949 | 0.156 | 0.164 | 0.304 | 0.404 | 0.655 |
| NCI-H1666 | 0.593 | 0.407 | 0.609 | 0.61 | 0.457 | 0.902 | 0.845 | 0.704 | 0.434 | 0.418 | 0.398 | 0.96 | 0.795 | 0.82 | 0.768 | 0.818 | 0.832 | 0.712 | 0.823 | 0.809 |
| LOU-NH91 | 0.692 | 0.739 | 0.811 | 0.771 | 0.677 | 0.919 | 0.844 | 0.914 | 0.539 | 0.564 | 0.515 | 0.748 | 0.775 | 0.753 | 0.424 | 0.434 | 0.35 | 0.985 | 0.913 | 1.04 |
